Results reported in patent US9334246B2, “Substituted triazines for malaria treatment and chemoprophylaxis” (The United States of America, as represented by the …, priority 2013, dated 2016).
Values after ≈ are worked out from the molar mass of the structure shown.

Experiments:
[1] = biological target: hERG potassium ion channel (Homo sapiens, UniProt Q12809); assay: hERG patch clamp assay (% inhibition at 10 μM); settings: for hERG (% inhibition): 10 μM
P. falciparum C235 = assay: Malaria SYBR Green Fluorescence Assay, C235 strain; format: cell-based, Plasmodium falciparum
P. falciparum W2 = assay: Malaria SYBR Green Fluorescence Assay, W2 strain; format: cell-based, Plasmodium falciparum
P. falciparum D6 = assay: Malaria SYBR Green Fluorescence Assay, D6 strain; format: cell-based, Plasmodium falciparum
P. berghei = assay: Thompson Test, in vivo mouse malaria assay; design: species or system mice (ICR strain)
[2] = % inhibition at 10 μM, patch clamp
[3] = Plasmodium falciparum, SYBR Green Assay

hERG potassium ion channel, sequence (Q12809 whole entry): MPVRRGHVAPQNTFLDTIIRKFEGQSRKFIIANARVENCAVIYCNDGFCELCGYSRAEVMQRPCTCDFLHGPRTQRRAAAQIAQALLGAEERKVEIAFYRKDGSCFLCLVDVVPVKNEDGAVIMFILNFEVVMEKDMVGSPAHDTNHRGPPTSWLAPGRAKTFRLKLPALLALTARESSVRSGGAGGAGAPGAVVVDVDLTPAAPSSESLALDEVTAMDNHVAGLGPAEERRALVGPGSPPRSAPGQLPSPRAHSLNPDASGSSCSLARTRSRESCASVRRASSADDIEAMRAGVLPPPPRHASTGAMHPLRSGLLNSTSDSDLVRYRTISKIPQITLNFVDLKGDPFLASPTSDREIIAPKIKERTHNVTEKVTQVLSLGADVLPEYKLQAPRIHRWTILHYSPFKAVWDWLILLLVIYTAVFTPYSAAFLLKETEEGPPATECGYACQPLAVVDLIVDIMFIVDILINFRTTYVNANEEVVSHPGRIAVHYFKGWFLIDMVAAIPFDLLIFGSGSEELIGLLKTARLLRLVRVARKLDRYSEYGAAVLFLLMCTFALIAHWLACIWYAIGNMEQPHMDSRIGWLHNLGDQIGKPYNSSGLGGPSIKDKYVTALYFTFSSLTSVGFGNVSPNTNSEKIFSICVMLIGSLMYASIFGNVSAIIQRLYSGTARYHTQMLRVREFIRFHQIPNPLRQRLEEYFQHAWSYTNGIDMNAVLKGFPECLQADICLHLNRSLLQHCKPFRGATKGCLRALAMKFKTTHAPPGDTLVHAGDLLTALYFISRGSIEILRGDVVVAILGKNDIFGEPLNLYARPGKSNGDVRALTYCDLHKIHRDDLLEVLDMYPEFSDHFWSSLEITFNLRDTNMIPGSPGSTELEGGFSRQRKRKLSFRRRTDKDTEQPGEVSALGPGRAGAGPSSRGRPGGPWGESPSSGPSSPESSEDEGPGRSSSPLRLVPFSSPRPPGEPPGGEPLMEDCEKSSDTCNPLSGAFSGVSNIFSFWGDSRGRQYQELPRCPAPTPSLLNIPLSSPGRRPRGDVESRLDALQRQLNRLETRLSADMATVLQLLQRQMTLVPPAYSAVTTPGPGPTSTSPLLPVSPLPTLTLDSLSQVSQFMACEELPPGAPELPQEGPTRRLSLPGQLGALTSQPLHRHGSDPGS

Molecule | C235 (P. falciparum C235; SYBR Green Assay) [ng/mL] | W2 (P. falciparum W2; SYBR Green Assay) [ng/mL] | D6 (P. falciparum D6; SYBR Green Assay) [ng/mL] | hERG (% inhibition) [1] [%] | C235 (SYBR Green Assay IC50) (P. falciparum C235) [µg/mL] | W2 (SYBR Green Assay IC50) (P. falciparum W2) [µg/mL] | D6 (SYBR Green Assay IC50) (P. falciparum D6) [µg/mL] | also measured
CC1(C)CC(Nc2nc(-c3ccc(C(C)(C)C)cc3)nc(C(Cl)(Cl)Cl)n2)CC(C)(C)N1 [Cmpd 321] | 11 | 3 | 6 |  |  |  |  | hERG [1, 2]: 11%
COc1ncccc1Nc1nc(NC2CC(C)(C)NC(C)(C)C2)nc(C(Cl)(Cl)Cl)n1 [Cmpd 348] | 18 | 9 | 11 |  |  |  |  | hERG [1, 2]: 96%
CCC(N)(CC)CNc1nc(-c2ccc(Cl)cc2)nc(C(Cl)(Cl)Cl)n1 [Cmpd 356] |  |  |  | 44 | 0.007 | 0.003 | 0.003 | 
CCC(N)(CC)CNc1nc(-c2ccc(-c3ccccc3)cc2)nc(C(Cl)(Cl)Cl)n1 [Cmpd 364] |  |  |  | 25 | 0.006 | 0.004 | 0.003 | 
CCN(CC)CCNc1nc(Nc2ccc(OC(F)(F)F)cc2)nc(C(Cl)(Cl)Cl)n1 [Cmpd 374] |  |  |  | 109 | 0.005 | 0.005 | 0.002 | 
CCC(N)(CC)CNc1nc(-c2ccc3ccccc3c2)nc(C(Cl)(Cl)Cl)n1 [Cmpd 377] |  |  |  | 25 | 0.008 | 0.006 | 0.002 | 
Fc1ccc(-c2nc(NCCCN3CCCC3)nc(C(Cl)(Cl)Cl)n2)cc1 [Cmpd 381] |  |  |  | 106 | 0.014 | 0.009 | 0.005 | 
CN1CCCC1CCNc1nc(-c2ccc(F)cc2)nc(C(Cl)(Cl)Cl)n1 (stereo not shown) [Cmpd 382] |  |  |  | 105 | 0.036 | 0.02 | 0.017 | 
CCN1CCCC(Nc2nc(-c3ccc(F)cc3)nc(C(Cl)(Cl)Cl)n2)C1 (stereo not shown) [Cmpd 387] |  |  |  | 108 | 0.013 | 0.007 | 0.004 | 
Clc1ccc(-c2nc(NCCCCCN3CCCC3)nc(C(Cl)(Cl)Cl)n2)cc1 [Cmpd 561] |  |  |  | 63 | 0.03869 | 0.02784 | 0.03967 | 
ClC(Cl)(Cl)c1ccc(-c2nc(NCCN3CCCC3)nc(C(Cl)(Cl)Cl)n2)cc1 [Compound 57] | 22 | 6 | 10 |  |  |  |  | hERG [1, 2]: 25%; In vivo Results Thompson Assay (n/N Cures or Suppressive) (P. berghei; (80 × 3): 80 mg/kg for 3 days): Suppressive; In vivo Results Thompson Assay (n/N Cures or Suppressive) (P. berghei; (160 × 3): 160 mg/kg for 3 days): 5/5
ClC(Cl)(Cl)c1nc(Nc2ccncc2)nc(-c2ccc3ccccc3c2)n1 [Compound 235] | 10 | 8 | 14 |  |  |  |  | In vivo Results Thompson Assay (n/N Cures or Suppressive) (P. berghei; (80 × 3): 80 mg/kg for 3 days): (80 × 3) Suppressive
NC1(CNc2nc(-c3ccccc3)nc(C(Cl)(Cl)Cl)n2)CCOCC1 [Compound 313] | 14 | 2 | 7 |  |  |  |  | In vivo Results Thompson Assay (n/N Cures or Suppressive) (P. berghei; (80 × 3): 80 mg/kg for 3 days): (80 × 3) 1/5 Cures
CC1(C)CC(Nc2nc(-c3ccccc3)nc(C(Cl)(Cl)Cl)n2)CC(C)(C)N1 [Compound 320] | 20 | 2 | 11 |  |  |  |  | In vivo Results Thompson Assay (n/N Cures or Suppressive) (P. berghei; (40 × 3): 40 mg/kg for 3 days): 1/5; In vivo Results Thompson Assay (n/N Cures or Suppressive) (P. berghei; (80 × 3): 80 mg/kg for 3 days): 4/4
CC(C)CN1CCC(Nc2nc(-c3ccc(C(C)(C)C)cc3)nc(C(Cl)(Cl)Cl)n2)CC1 [Compound 694, CC(C)CN1CCC(CC1)NC1═NC(═NC(═N1)C(Cl)(Cl)Cl)C1═CC═C(C═C1)C(C)(C)C] | 37 | 23 | 24 |  |  |  |  | In vivo Results Thompson Assay (n/N Cures or Suppressive) (P. berghei; (80 × 3): 80 mg/kg for 3 days): (80 × 3) Suppressive
CC(C)(C)OC(=O)N1CC2CC1CN2c1nc(-c2ccc(S(C)(=O)=O)cc2)nc(C(Cl)(Cl)Cl)n1 (stereo not shown) [Compound 715, CC(C)(C)OC(═O)N1CC2CC1CN2c3nc(nc(n3)C(Cl)(Cl)Cl)c4ccc(cc4)S(═O)(═O)C] | 185 | 63 | 126 |  |  |  |  | hERG ([1]; hERG activity as % inhibition): 19%

Molecule | C235 (P. falciparum C235; SYBR Green Assay) [ng/mL] | W2 (P. falciparum W2; SYBR Green Assay) [ng/mL] | D6 (P. falciparum D6; SYBR Green Assay) [ng/mL] | hERG (% inhibition) [1] [%] | C235 (SYBR Green Assay IC50) (P. falciparum C235) [µg/mL] | W2 (SYBR Green Assay IC50) (P. falciparum W2) [µg/mL] | D6 (SYBR Green Assay IC50) (P. falciparum D6) [µg/mL] | also measured
CC(CNc1nc(-c2ccc(Cl)c(Cl)c2)nc(C(Cl)(Cl)Cl)n1)N(C)C (stereo not shown) [Example 1, N^1-(4-(3,4-dichlorophenyl)-6-(trichloromethyl)-1,3,5-triazin-2-yl)-N^2,N^2-dimethylpropane-1,2-diamine] |  |  |  |  |  |  |  | hERG ([1]; hERG activity as % inhibition): 95%; IC50 (P. falciparum C235; [3]): 0.0367 µg/mL (≈ 0.0828 µM); IC50 (P. falciparum W2; [3]): 0.0294 µg/mL (≈ 0.0663 µM); IC50 (P. falciparum D6; [3]): 0.0416 µg/mL (≈ 0.0937 µM)
CC(C)(C)c1ccc(cc1)c2nc(Nc3ccncc3)nc(n2)C(Cl)(Cl)Cl [Compound 739] | 25 | 24 | 23 |  |  |  |  | hERG ([1]; hERG activity as % inhibition): 26%
CC(CN(C)C)Nc1nc(Nc2cc(Cl)cc(Cl)c2)nc(n1)C(Cl)(Cl)Cl [Compound 639] |  |  |  | 25 | 0.009 | 0.007 | 0.013 | 
CC(CN(C)C)Nc1nc(Nc2ccc(Cl)c(Cl)c2)nc(n1)C(Cl)(Cl)Cl [Compound 640] |  |  |  | 23 | 0.01 | 0.008 | 0.008 | 
CCN1CCC(CC1)C(C)Nc2nc(Nc3cc(Cl)cc(Cl)c3)nc(n2)C(Cl)(Cl)Cl [Compound 645] |  |  |  | 75 | 0.05886 | 0.0375 | 0.07911 | 
CCN(CC)CC(C)Nc1nc(Nc2cc(Cl)cc(Cl)c2)nc(n1)C(Cl)(Cl)Cl [Compound 644] |  |  |  | 100 | 0.014 | 0.009 | 0.131 | 
CCN(CC)CC(C)Nc1nc(Nc2ccc(Cl)c(Cl)c2)nc(n1)C(Cl)(Cl)Cl [Compound 642] |  |  |  | 76 | 0.013 | 0.003 | 0.005 | 
CN1CCN(CC1)c2ccc(Nc3nc(NCCN4CCCC4)nc(n3)C(Cl)(Cl)Cl)cc2 [Compound 733] | 87 | 36 | 117 |  |  |  |  | hERG ([1]; hERG activity as % inhibition): 55%
CN(C)CCCNc1nc(Nc2ccc(Cl)c(Cl)c2)nc(n1)C(Cl)(Cl)Cl [Compound 637] |  |  |  | 103 | 0.02 | 0.013 | 0.017 | 
COc1ccc(cc1)c2nc(nc(n2)C(Cl)(Cl)Cl)N3CC4CC3CN4 [Compound 718] | 139.2 | 77.35 | 278.6 |  |  |  |  | hERG ([1]; hERG activity as % inhibition): 23.5%
Cc1cc(CNc2nc(nc(n2)C(Cl)(Cl)Cl)c3ccc(Cl)c(Cl)c3)n(C)n1 [Compound 708] | 221 | 75.2 | 319.7 |  |  |  |  | hERG ([1]; hERG activity as % inhibition): 12.2%
ClC(C1═NC(NCCO)═NC(C2═CC(C(F)(F)F)═CC═C2)═N1)(Cl)Cl [Compound 647] |  |  |  | 100 | 0.039 | 0.023 | 0.035 | 
ClC(Cl)(Cl)c1nc(nc(n1)c2ccccc2)N3CC4CC3CN4 [Compound 720] | 89 | 35 | 56 |  |  |  |  | hERG ([1]; hERG activity as % inhibition): 84%
NC1(CNC2═NC(═NC(═N2)C2═CC═C(C═C2)C(Cl)(Cl)Cl)C(Cl)(Cl)Cl)CCCCC1 [Compound 666] | 5 | 2 | 3 |  |  |  |  | In vivo Results Thompson Assay (n/N Cures or Suppressive) (P. berghei; (80 × 3): 80 mg/kg for 3 days): (80 × 3) 2/4 Cures
tert-butyl 5-(4-(4-chlorophenyl)-6-(trichloromethyl)-1,3,5-triazin-2-yl)-2,5-diazabicyclo[2.2.1]heptane-2-carboxylate [Example 6] | 44 | 26 | 33 |  |  |  |  | hERG [1, 2]: 96%
